Results on one molecule are retold here after patent publication US20240352145A1, “EFFICACY OF ANTI-TROP-2-SN-38 ANTIBODY DRUG CONJUGATES FOR THERAPY OF TUMORS RELAPSED/REFRACTORY TO CHECKPOINT INHIBITORS” (Immunomedics, Inc., priority 2016, published 2024).

As usually defined, the IC50 is the concentration at which inhibition is half-maximal.

In test [1] the test system is Capan-1. Kind of test: Cytotoxicity (MTS), Example 6, Capan-1. The conditions noted are these: Capan-1, 96 h. The test is classed as cell-based, human. Here is the method: (§1) One day prior to adding the ADCs, cells were harvested from tissue culture and plated into 96-well plates. […] Plates were incubated at 37° C. for 96 h. […] Growth inhibition was measured as a percent of growth relative to untreated cells using Microsoft Excel and Prism software (non-linear regression to generate sigmoidal dose response curves which yield IC50-values.

The test system of a further test is HCC1806. Kind of test: SN-38 sensitivity (MTS), HCC1806. Conditions: HCC1806 (TNBC), 96 h. Type of test: cell-based, human. Here is the method: (§2) In vitro cytotoxicity testing—Sensitivity to SN-38 was determined using the 3-(4,5-dimethylthiazol-2-yl)-5-(3-carboxymethoxyphenyl)-2-(4-sulfophenyl)-2H-tetrazolium dye reduction assay (MTS dye reduction assay; Promega, Madison, WI). Briefly, cells were plated into 96-well clear, flat-bottomed plates as described above. SN-38 dissolved in DMSO was diluted with media to a final concentration of 0.004 to 250 nM. […] Growth inhibition was measured as a percent of growth relative to untreated cells. Dose-response curves were generated from the mean of triplicate determinations, and IC50-values were calculated using Prism GraphPad Software.

For test [2], the system named is MDA-MB-468. Kind of test: Cytotoxicity (MTS), Example 7, MDA-MB-468. Type of test: cell-based, human. The conditions noted are these: MDA-MB-468, 96 h. Here is the method:
(§3) One day prior to adding the ADC, cells were harvested from tissue culture and plated into 96-well plates at 2000 cells per well. […] Plates were incubated at 37° C. for 96 h. […] Growth inhibition was measured as a percent of growth relative to untreated cells using Microsoft Excel and Prism software (non-linear regression to generate sigmoidal dose response curves which yield IC50-values).

Another test concerns COLO 205. Kind of test: In vitro cytotoxicity, COLO 205.
Another test concerns p21^WAF1/Cip1. Kind of test: Immunoblotting, apoptotic pathway, MDA-MB-468. The test is classed as cell-based, human. The conditions noted are these: MDA-MB-468, by 48 h. How it is done:
Immunoblotting—Cells (2×10^6) were plated in 6-well plates overnight. […] Parental hRS7 was used as a control for the ADC.
In general terms: In western blotting, separated proteins are transferred to a membrane and probed.

For test [3], the system named is MDA-MB-468. The test can be described thus: SN-38 sensitivity (MTS), MDA-MB-468. Type of test: cell-based, human. The conditions noted are these: MDA-MB-468 (TNBC), 96 h. Here is the method:
as §2

Test [4] has as its system p21^Waf1/Cip1 and p53. Kind of test: Signaling events (p21Waf1/Cip1, p53) in Calu-3. Type of test: cell-based, human.
Source text: (§4) Our initial studies examined the expression of 2 proteins involved in early signaling events (p21^Waf1/Cip1 and p53) and 1 late apoptotic event [cleavage of poly-ADP-ribose polymerase (PARP)] in vitro (not shown).
Test [5] deals with BxPC-3. The test can be described thus: In vitro cytotoxicity, BxPC-3.
Source text: (§5) Cell lines, antibodies, and chemotherapeutics—All human cancer cell lines used in this study were purchased from the American Type Culture Collection.
For test [6], the system named is p21^Waf1/Cip1 and p53. The test can be described thus: Signaling events (p21Waf1/Cip1, p53) in BxPC-3. Type of test: cell-based, human.
Source text: as §4
For another test, the system named is NCI-N87. Kind of test: Cytotoxicity (MTS), Example 6, NCI-N87. Type of test: cell-based, human. Conditions: NCI-N87, 96 h. Here is the method:
as §1

The subject of the next test is MDA-MB-231. Kind of test: SN-38 sensitivity (MTS), MDA-MB-231. The test is classed as cell-based, human. The conditions noted are these: MDA-MB-231 (TNBC), 96 h. Here is the method: as §2
The subject of another test is SK-MES-1. Kind of test: In vitro cytotoxicity, SK-MES-1.
For a further test, the system named is PARP. The test can be described thus: Immunoblotting, apoptosis signaling, NCI-N87 and BxPC-3. Type of test: cell-based, human. The conditions noted are these: evident at 24 h, increased at 48 h. Here is the method:
Immunoblotting—Cells (2×10^6) were plated in 6-well plates overnight. […] Parental hRS7 was used as a control for the ADC. Cells were lysed in buffer containing 10 mM Tris, pH 7.4, 150 mM NaCl, protease inhibitors and phosphatase inhibitors (2 mM […], 10 mM NaF). A total of 20 μg protein was resolved in a 4-20% SDS polyacrylamide gel, transferred onto a nitrocellulose membrane and blocked by 5% non-fat milk in 1×TBS-T (Tris-buffered saline, 0.1% Tween-20) for 1 h at room temperature. Membranes were probed overnight at 4° C. with primary antibodies followed by 1-h incubation with antirabbit secondary antibody (1:2500) at room temperature. Signal detection was done using a chemiluminescence kit (Supersignal West Dura, Thermo Scientific; Rockford, IL) with the membranes visualized on a Kodak Image Station […]. Primary antibodies p21Waf1/Cip1 (Cat. No. 2947), Caspase-3 (Cat. No. 9665), Caspase-7 (Cat. No. 9492), Caspase-9 (Cat. No. 9502), PARP (Cat. No. 9542), 3-actin (Cat. No. 4967), pJNK1/2 (Cat. No. 4668), JNK (Cat. No. 9258), and goat anti-rabbit-HRP secondary antibody (Cat. No. 7074) were obtained from Cell Signal Technology (Danvers, MA).

A further test concerns Calu-3. Kind of test: In vitro cytotoxicity, Calu-3.
In test [7] the test system is BxPC-3. The test can be described thus: Cytotoxicity (MTS), Example 6, BxPC-3. Type of test: cell-based, human. The conditions noted are these: BxPC-3, 96 h. Here is the method: as §1
The next test relates to SK-BR-3. The test can be described thus: SN-38 sensitivity (MTS), SK-BR-3. The test is classed as cell-based, human. Conditions: SK-BR-3 (HER2+), 96 h. Here is the method:
as §2

The test system of the next test is PC-3. Kind of test: In vitro cytotoxicity, PC-3.
For test [8], the system named is Capan-1. The test can be described thus: In vitro cytotoxicity, Capan-1.
Source text: as §5
For test [9], the system named is BxPC-3. The test can be described thus: Cytotoxicity (MTS), Example 7, BxPC-3. Type of test: cell-based, human. Conditions: BxPC-3, 96 h. How it is done: as §3
A further test has as its system HCC38. Kind of test: SN-38 sensitivity (MTS), HCC38. The test is classed as cell-based, human. The conditions noted are these: HCC38 (TNBC), 96 h. How it is done: as §2
The test system of a further test is MCF-7. Kind of test: SN-38 sensitivity (MTS), MCF-7. Type of test: cell-based, human. Conditions: MCF-7 (ER+), 96 h. Here is the method: as §2

Source text for COLO 205: as §5
Source text for SK-MES-1: as §5

As for `CCc1c2c(nc3ccc(O)cc13)-c1cc3c(c(=O)n1C2)COC(=O)[C@]3(O)CC` [SN-38, 7-ethyl-10-hydroxycamptothecin], the IC50 with Capan-1 [1] is 1 nM; in the test on HCC1806 it was 1 nM; in the test with MDA-MB-468 [2], 0.8 nM; in the test with COLO 205, 1.02 nM; in the test on MDA-MB-468 [3], 2 nM; in the test on BxPC-3 [5] it was 1.44 nM. Besides, the concentration for half-maximal inhibition (IC50) was determined as 4.3 nM in the test with NCI-N87; 6 nM in the test on MDA-MB-231; 8.61 nM in the test with SK-MES-1; 7.19 nM in the test on Calu-3; 1 nM in the test with BxPC-3 [7]; 2 nM in the test with SK-BR-3. In addition, the IC50 with PC-3 is 1.86 nM; with Capan-1 [8] it was 3.5 nM; in the test with BxPC-3 [9], 1.6 nM; in the test with HCC38, 2 nM; with MCF-7 it was 33 nM. Further, the “decrease of p21WAF1/Cip1” value in the test with p21^WAF1/Cip1 worked out at 31%. The “exposure time at which p53 upregulation is evident” value with p21^Waf1/Cip1 and p53 [4] turned out to be 48 h; with p21^Waf1/Cip1 and p53 [6], 48 h. The “increase in p21Waf1/Cip1 expression” value in the test on p21^Waf1/Cip1 and p53 [6] came to 20 fold. For the same molecule, in the test on PARP, the PARP cleavage entry is “mediated PARP cleavage”.
